# How the values were obtained:
# [1] = test system: Botrytis cinerea; experiment: Activity against Botrytis cinerea on apple fruits (residual-protective action); assay type: in vivo; settings: mixture of the labelled component I with component II = furalaxyl (II C), metalaxyl (II A) or R-metalaxyl (II B); damaged apples; 0.02% of active ingredient; one week incubation
# Procedure: The treated fruits are subsequently inoculated with a spore suspension of the fungus and incubated for one week at high atmospheric humidity and approximately 20° C. The fungicidal activity of the test substance is deduced from the number of the sites of damage where rotting has been observed.
# [2] = test system: Cercospora arachidicola; experiment: Residual-protective action against Cercospora arachidicola in groundnuts; assay type: in vivo; settings: mixture of the labelled component I with component II; groundnut plants; 0.02% of active ingredient; assessed 12 days after infection
# Procedure: The plants are incubated for 72 hours at 21° and high atmospheric humidity and subsequently placed in a greenhouse until the typical foliar lesions appear. The activity of the active ingredient is assessed 12 days after the infection on the basis of number and size of the foliar lesions.
# [3] = test system: Erysiphe graminis; experiment: Activity against Erysiphe graminis in barley (residual-protective and systemic action); assay type: in vivo; settings: mixture of the labelled component I with component II; barley; a) spray 0.02% of active ingredient, b) 0.002% based on soil volume; assessed 12 days after infection
# Procedure: The infected plants are placed in a greenhouse at 22°. The fungus infestation is assessed 12 days after the infection. […] 48 hours later, the plants are dusted with conidia of the fungus. The infected plants are placed in a greenhouse at 22°. The fungus infestation is assessed 12 days after the infection.
# [4] = test system: Puccinia recondita; experiment: Activity against Puccinia recondita in wheat (residual-protective and systemic action); assay type: in vivo; settings: mixture of the labelled component I with component II; wheat; a) spray 0.02% of active ingredient, b) 0.006% based on soil volume; assessed 12 days after infection
# [5] = test system: Septoria nodorum; experiment: Activity against Septoria nodorum in wheat; assay type: in vivo; settings: mixture of the labelled component I with component II; wheat 3-leaf stage; 60 ppm of a.i.; assessed 13 days after infection
# Procedure: 13 days after the infection, the fungus infestation is assessed.
# [6] = test system: Plasmopara viticola; experiment: Activity against Plasmopara viticola in grapevines; settings: mixture of the labelled component I with component II = ofurace (II E), oxadixyl (II F), or in particular metalaxyl (II A) or R-metalaxyl (II B); grapevine seedlings; 0.02% of active ingredient; assessed 6 days after infection
# Procedure: Grapevine seedlings at the 4-to-5-leaf stage are sprayed to drip point with an aqueous spray mixture prepared with a wettable powder of the active ingredient mixture (0.02% of active ingredient) and, 24 hours later, infected with a sporangia suspension of the fungus. The fungus infestation is assessed 6 days after infection, during which time a relative atmospheric humidity of 95 to 100% and a temperature of 20° are maintained.
# [7] = test system: Fusarium nivale; experiment: Activity against Fusarium nivale in rye (seed dressing, field); assay type: in vivo; settings: mixture of the labelled component I with component II, rye cv. Tetrahell seed dressing, 20 or 6 ppm of a.i. based on seed weight
# Procedure: which has been infected naturally with Fusarium nivale is dressed with the test fungicide in a roller mixer, the following concentrations being used: 20 or 6 ppm of a.i. (based on the seed weight). The infected and treated rye is sown in the open in October in plots of 3 m length and 6 seed rows, using a seed drill. 3 replications per concentration. Until the disease level is evaluated, the experimental field is subjected to the field conditions of normal crop management (preferably in a region with unbroken snow cover during the winter months). To assess the phytotoxicity, seedling emergence is scored in autumn and plant density/tillering in spring. To assess the activity of the active ingredient, the percentage of Fusarium-infected plants is evaluated early in the year, immediately after the snows have melted.
# [8] = test system: Phytophthora; settings: mixture of the labelled component I, in particular in combination with metalaxyl (II A), benalaxyl (II D) or R-metalaxyl (II B); potato (Bintje); a) spray 0.02% of active ingredient, b) 0.002% based on soil volume; 5 days incubation
# Procedure: 2-3 week old potato plants (Bintje variety) are grown for 3 weeks and then sprayed with a spray mixture (0.02% of active ingredient) prepared with a wettable powder of the active ingredient. After 24 hours, the treated plants are infected with a sporangia suspension of the fungus. The fungus infestation is assessed after the infected plants have been incubated for 5 days at a relative atmospheric humidity of 90-100% and 20° C.
# A spray mixture (0.002% of active ingredient based on the soil volume) prepared with a wettable powder of the active ingredient is poured next to 2-3 week old potato plants (Bintje variety) which have been grown for 3 weeks. […] After 48 hours, the treated plants are infected with a sporangia suspension of the fungus. Fungus infestation is assessed after the infected plants have been incubated for 5 days at a relative atmospheric humidity of 90-100% and 20° C.
# [9] = test system: Phytophthora infestans; assay type: in vivo; settings: mixture of the labelled component I with component II = oxadixyl (II F), ofurace (II E), or in particular metalaxyl (II A) or R-metalaxyl (II B); tomato cv. Roter Gnom; a) curative 200 ppm, b) preventive-systemic 60 ppm relative to soil volume
smiles,measurement,setting,value
"CON=C(C(=O)OC)c1ccccc1CON=C(C)c1cccc(OC(F)(F)F)c1 [(32), methyl 2-[α-{[(α-methyl-3-trifluoromethoxybenzyl)imino]oxy}-o-tolyl]glyoxylate O-methyloxime]",activity of active ingredient mixture (number of sites of damage with rotting),[1],markedly increased activity
same,activity of active ingredient mixture (number and size of foliar lesions),[2],markedly increased activity
same,synergistic effect of active ingredient mixture (fungus infestation),[3],good synergistic effect
same,synergistic effect of active ingredient mixture (fungus infestation),[4],good synergistic effect
same,activity of active ingredient mixture (fungus infestation),[5],markedly increased activity
same,synergistic effect of active ingredient mixture (fungus infestation),[6],marked synergistic effect
same,synergistic effect of active ingredient mixture (percentage of Fusarium-infected plants),[7],good synergistic effect
same,synergistic effect of active ingredient mixture (fungus infestation),[8],good synergistic effect
same,synergistic effect of active ingredient mixture (number and size of foliar lesions),[9],good synergistic effect
